{
  "source": "the supplement of paper PMC10307832",
  "assay_in_all_cases": "relative viability (nuclei count vs DMSO), 5 days (fraction); higher = more cells survive",
  "key": {"TGX 221 + OSI-027": {"compound": "CC1=CN2C(=O)C=C(N=C2C(=C1)C(C)NC3=CC=CC=C3)N4CCOCC4 [TGX 221] + COc1cccc2cc(-c3nc([C@H]4CC[C@H](C(=O)O)CC4)n4ncnc(N)c34)[nH]c12 [OSI-027] (partner 0.5 µM)", "summary_of_the_method": "(§1)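 For relative viability, nuclei counts in treated wells were divided by those in vehicle wells. Lung cancer cell lines had been pin-tool dosed in 1536-well plates the day after seeding and cultured for 5 days, then fixed and stained in one step (final 0.05% Triton X-100, 1% formaldehyde, 1 ug/ml Hoechst) and imaged at 4×. Doses were one drug alone or a fixed anchor-drug dose plus five library-drug doses (not always all listed) in √10 steps, and values are duplicate-plate medians.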"}, "[1]": {"compound": "C1=CC=C(C(=C1)C2=CC=C(C=C2)C3=CSC4=C3C(=C(C(=O)N4)C#N)O)O + NC(=O)Nc1cc(-c2cccc(F)c2)sc1C(=O)N[C@H]1CCCNC1 [AZD7762] (partner 0.2 µM)", "summary_of_the_method": "as §1"}, "[2]": {"compound": "C1=CC=C(C(=C1)C2=CC=C(C=C2)C3=CSC4=C3C(=C(C(=O)N4)C#N)O)O + CS(=O)(=O)N1CCN(Cc2cc3nc(-c4cccc5[nH]ncc45)nc(N4CCOCC4)c3s2)CC1 [Pictilisib] (partner 1 µM)", "summary_of_the_method": "as §1"}, "[3]": {"compound": "O=C(CCCCCCNC(=O)c1cnc(N(c2ccccc2)c2ccccc2)nc1)NO [Ricolinostat] + Nc1nc2[nH]cc(CCc3ccc(C(=O)N[C@@H](CCC(=O)O)C(=O)O)cc3)c2c(=O)[nH]1 [Pemetrexed] (partner 0.2 µM)", "summary_of_the_method": "as §1"}, "[4]": {"compound": "C1=CC=C(C(=C1)C2=CC=C(C=C2)C3=CSC4=C3C(=C(C(=O)N4)C#N)O)O + C[C@@H](Oc1cc(-c2cnn(C3CCNCC3)c2)cnc1N)c1c(Cl)ccc(F)c1Cl [Crizotinib] (partner 1 µM)", "summary_of_the_method": "as §1"}},
  "data": [
    {"cell line": "NCI-H1792", "values": [
      {"measurement": "relative viability", "setting": "TGX 221 + OSI-027; first compound 0.08 µM", "value": 0.768},
      {"measurement": "relative viability", "setting": "TGX 221 + OSI-027; first compound 0.253 µM", "value": 0.601},
      {"measurement": "relative viability", "setting": "TGX 221 + OSI-027; first compound 0.8 µM", "value": 0.71},
      {"measurement": "relative viability", "setting": "TGX 221 + OSI-027; first compound 2.53 µM", "value": 0.517},
      {"measurement": "relative viability", "setting": "TGX 221 + OSI-027; first compound 8 µM", "value": 0.564},
      {"measurement": "relative viability", "setting": "[1]; first compound 0.253 µM", "value": 0.953},
      {"measurement": "relative viability", "setting": "[1]; first compound 0.8 µM", "value": 0.329},
      {"measurement": "relative viability", "setting": "[1]; first compound 2.53 µM", "value": 0.551},
      {"measurement": "relative viability", "setting": "[1]; first compound 8 µM", "value": 0.532},
      {"measurement": "relative viability", "setting": "[2]; first compound 0.253 µM", "value": 0.275},
      {"measurement": "relative viability", "setting": "[2]; first compound 0.8 µM", "value": 0.266},
      {"measurement": "relative viability", "setting": "[2]; first compound 2.53 µM", "value": 0.19},
      {"measurement": "relative viability", "setting": "[2]; first compound 8 µM", "value": 0.18},
      {"measurement": "relative viability", "setting": "[3]; first compound 0.253 µM", "value": 0.92},
      {"measurement": "relative viability", "setting": "[3]; first compound 0.8 µM", "value": 0.59},
      {"measurement": "relative viability", "setting": "[3]; first compound 2.53 µM", "value": 0.415},
      {"measurement": "relative viability", "setting": "[4]; first compound 0.253 µM", "value": 0.915},
      {"measurement": "relative viability", "setting": "[4]; first compound 0.8 µM", "value": 1.15},
      {"measurement": "relative viability", "setting": "[4]; first compound 2.53 µM", "value": 1.13},
      {"measurement": "relative viability", "setting": "[4]; first compound 8 µM", "value": 0.43}
    ]}
  ]
}
